Where a name gives a salt, the structure may show the parent alone.
Legend:
MIN6 cell = assay: Insulin secretion enhancing action in cultured β-cell (MIN6); format: cell-based; conditions: for Amount of secreted insulin (ng/ml) avg: in the presence of 14.5 mM glucose; for insulin secretion enhancing action at low glucose: low glucose concentration (5 mM), controls for comparison
Method: Culture of the MIN6 cells and insulin secretion test utilizing the MIN6 cells were performed basically according to the methods described in literature (Ishihara et al., Diabetologia, vol. 36, pp.1139-1145, 1993). The effect of a compound on the insulin secretion in the presence of 14.5 mM glucose was determined by measuring insulin amounts in cell culture supernatants collected as follows. MIN6 cells cultured on a 24-well plate were washed twice by using 1 ml of Buffer A (119 mM sodium chloride, 4.74 mM potassium chloride, 2.54 mM calcium chloride, 1.19 mM magnesium sulfate, 1.19 mM potassium dihydrogenphosphate, 10 mM 2-[4-(2-hydroxyethyl)-1-piperazinyl]ethanesulfonic acid, 0.1% bovine serum albumin, pH 7.3) containing 2 mM glucose, and then were incubated in 1 ml of Buffer A containing 2 mM glucose at 37° C. for 45 minutes. After the incubation, the culture supernatant was changed to Buffer A (0.9 ml) containing a test compound at various concentrations and 2 mM glucose, and the cells were further incubated at 37° C. for 15 minutes. The MIN6 cells were stimulated with glucose by the addition of Buffer A (0.1 ml) containing 127 mM glucose to the culture (final glucose concentration: 14.5 mM). After the stimulation, the cells were further incubated at 37° C. for 45 minutes, and then the culture supernatant was collected.
Separately, the effect of a compound on the insulin secretion in the presence of 5 mM glucose was determined by measuring insulin amounts in cell culture supernatants collected as follows. MIN6 cells cultured on a 24-well plate were washed twice by using 1 ml of Buffer A containing 5 mM glucose, and then the culture supernatant was changed to Buffer A (0.9 ml) containing a test compound at various concentrations and 5 mM glucose. Then, the cells were incubated at 37° C. for 45 minutes (final glucose concentration: 5 mM), and the culture supernatant was collected.
After the culture supernatant was diluted with a phosphate buffer containing 1% bovine serum albumin, 0.1% Tween 20, 0.12% disodium ethylenediaminetetraacetate and 0.1% sodium azide, antibody-reactive insulin secreted in the culture supernatant was quantified by enzyme immunoassay or radio immunoassay. […] The results are indicated as averages (avg) for 3 to 4 samples with standard error values (se).

Wistar male rats = conditions: 1 mg/kg, iv
Method: Wistar male rats (body weight: about 250 g) starved for 18 hours were anesthetized by intraperitoneal administration of sodium pentobarbital (50 mg/kg), and fixed at the dorsal position. Cannulas were inserted into the right common carotid artery for blood collection and the left femoral vein for administration of drug and glucose, respectively. To these rats were intravenously administered 500 U/kg of heparin to prevent blood coagulation. After about 0.2 ml of blood was collected, a drug was intravenously administered. Two minutes after the administration of the drug, blood was collected, and then glucose (10 mg/kg) was immediately administered intravenously. Then, blood was collected every 20 seconds for 2 minutes. Insulin concentration in plasma obtained by centrifugation was measured by radioimmunoassay. From an insulin concentration which increased after the glucose-loading, its area was calculated and considered the amount of secreted insulin. The insulin level was indicated as the amount of rat insulin (ng/mL).

Structure (SMILES) | melting point [°C] | further results
CCCN1C(=O)N2C[C@H](C(C)C)N=C2c2[nH]c(C3CCCC3)nc21.Cl | 109 to 112 | 
CCCCC1CN2C(=O)N(CCC)c3nc(C4CCCC4)[nH]c3C2=N1.Cl (stereo not drawn) | 146 to 148 | 
CCCN1C(=O)N2CC(Cc3ccc([N+](=O)[O-])cc3)N=C2c2[nH]c(C3CCCC3)nc21.Cl (stereo not drawn) | 215 to 217 | 
CCCN1C(=O)N2C[C@@H](Cc3ccccc3)N=C2c2c1ncn2Cc1ccccc1.Cl | 198 to 200 | 
CCCc1nc2c([nH]1)C1=NC(Cc3ccc(Cl)cc3)CN1C(=O)N2CCC.Cl (stereo not drawn) | 191 to 192 | 
CCCN1C(=O)N2CC(Cc3ccc(Cl)cc3)N=C2c2[nH]c(C3CCC3)nc21.Cl (stereo not drawn) | 214 to 215 | 
CCCc1nc2c([nH]1)C1=NC(Cc3ccc(F)cc3)CN1C(=O)N2CCC.Cl (stereo not drawn) | 199 to 200 | 
CCCCc1nc2c([nH]1)C1=NC(Cc3ccc(F)cc3)CN1C(=O)N2CCC.Cl (stereo not drawn) | 193 to 196 | 
CCCc1nc2c([nH]1)C1=NC(Cc3cccc(F)c3)CN1C(=O)N2CCC.Cl (stereo not drawn) | 139 to 140 | 
CCCN1C(=O)N2CC(Cc3cccc(F)c3)N=C2c2[nH]c(C3CCC3)nc21.Cl (stereo not drawn) | 164 to 165 | 
CCCN1C(=O)N2CC(Cc3cccc(F)c3)N=C2c2[nH]c(CC(C)C)nc21 (stereo not drawn) | 186 to 187 | 
CCCN1C(=O)N2C[C@@H](C)N=C2c2[nH]c(C3CCCC3)nc21.Cl | 218 to 219 | 
CCCN1C(=O)N2CC(Cc3ccccc3F)N=C2c2[nH]c(CC(C)C)nc21 (stereo not drawn) | 159 to 160 | 
CCCN1C(=O)N2C[C@H](C(C)C)N=C2c2[nH]c(C(C)C)nc21.Cl | 156 to 157 | 
CCCN1C(=O)N2C[C@@H](C(C)C)N=C2c2[nH]c(C3CCCC3)nc21.Cl | 116 to 118 | 
CCCN1C(=O)N2CC(Cc3ccc(F)cc3)N=C2c2[nH]c(C3CCCC3)nc21 (stereo not drawn) (as salt: hydrochloride) [Compound 18, 2-cyclopentyl-8-(4-fluorobenzyl)-7,8-dihydro-4-propyl-1H-imidazo[2,1-i]purin-5(4H)-one hydrochloride] | 226 to 228 | 
CCCN1C(=O)N2CC(Cc3ccc(Cl)cc3)N=C2c2[nH]c(C3CCCC3)nc21 (stereo not drawn) (as salt: hydrochloride) [Compound 20, 8-(4-chlorobenzyl)-2-cyclopentyl-7,8-dihydro-4-propyl-1H-imidazo[2,1-i]purin-5(4H)-one hydrochloride] | 222 to 224 | 
CCCN1C(=O)N2CC(Cc3ccc(Br)cc3)N=C2c2[nH]c(C3CCCC3)nc21 (stereo not drawn) (as salt: hydrochloride) [Compound 23, 8-(4-bromobenzyl)-2-cyclopentyl-7,8-dihydro-4-propyl-1H-imidazo[2,1-i]purin-5(4H)-one hydrochloride] | 184 to 186 | 

Structure (SMILES) | melting point [°C] | further results
CCCN1C(=O)N2CC(CCc3ccccc3)N=C2c2[nH]c(C3CCCC3)nc21 (stereo not drawn) (as salt: hydrochloride) [Compound 31, 2-cyclopentyl-7,8-dihydro-8-phenethyl-4-propyl-1H-imidazo[2,1-i]purin-5(4H)-one hydrochloride] | 171 to 173 | 
CCCc1nc2c([nH]1)C1=N[C@H](Cc3ccccc3)CN1C(=O)N2CCC (as salt: hydrochloride) [Compound 35, (R)-8-benzyl-7,8-dihydro-2,4-dipropyl-1H-imidazo[2,1-i]purin-5(4H)-one hydrochloride] | 195 to 197 | 
CCCN1C(=O)N2C[C@@H](Cc3ccccc3)N=C2c2[nH]c(C3CCC3)nc21 (as salt: hydrochloride) [Compound 37, (R)-8-benzyl-2-cyclobutyl-7,8-dihydro-4-propyl-1H-imidazo[2,1-i]purin-5(4H)-one hydrochloride] | 214 to 216 | 
CCCN1C(=O)N2C[C@@H](Cc3ccccc3)N=C2c2[nH]c(C(C)(C)C)nc21 (as salt: hydrochloride) [Compound 43, (R)-8-benzyl-2-tert-butyl-7,8-dihydro-4-propyl-1H-imidazo[2,1-i]purin-5(4H)-one hydrochloride] | 220 to 222 | 
CCCN1C(=O)N2CC(Cc3ccc(F)cc3)N=C2c2[nH]c(C3CCCCC3)nc21 (stereo not drawn) (as salt: hydrochloride) [Compound 50, 2-cyclohexyl-8-(4-fluorobenzyl)-7,8-dihydro-4-propyl-1H-imidazo[2,1-i]purin-5(4H)-one hydrochloride] | 237 to 239 | 
CCCN1C(=O)N2CC(Cc3cc(Cl)ccc3Cl)N=C2c2[nH]c(C3CCCC3)nc21 (stereo not drawn) (as salt: hydrochloride) [Compound 65, 2-cyclopentyl-8-(2,5-dichlorobenzyl)-7,8-dihydro-4-propyl-1H-imidazo[2,1-i]purin-5(4H)-one hydrochloride] | 172 to 173 | 
CC(C)[C@H]1CC[C@H](C(=O)N[C@H](Cc2ccccc2)C(=O)O)CC1 [AY4166, AY-4166, reference compound] |  | Amount of secreted insulin (ng/ml) avg (MIN6 cell; drug concentration 1.0 μM): 195.1 ng/mL; insulin secretion enhancing action at low glucose (MIN6 cell): showed marked secretion enhancing action
CCCN1C(=O)N2C[C@H](C(C)(C)C)N=C2c2[nH]c(C3CCCC3)nc21.Cl [Compound 12, (S)-8-tert-butyl-2-cyclopentyl-7,8-dihydro-4-propyl-1H-imidazo[2,1-i]purin-5(4H)-one hydrochloride] | 184 to 186 | Amount of secreted insulin (ng/ml) avg (MIN6 cell; drug concentration 1.0 μM): 227.8 ng/mL
CCCN1C(=O)N2CC(Cc3ccc(F)cc3)N=C2c2[nH]c(C3CCCC3)nc21 (stereo not drawn) [Compound 18, 2-cyclopentyl-8-(4-fluorobenzyl)-7,8-dihydro-4-propyl-1H-imidazo[2,1-i]purin-5(4H)-one hydrochloride] |  | Amount of secreted insulin (ng/ml) avg (MIN6 cell; drug concentration 1.0 μM): 181.9 ng/mL
CCCN1C(=O)N2CC(Cc3cccc(F)c3)N=C2c2[nH]c(C3CCCC3)nc21 (stereo not drawn) [Compound 19, 2-cyclopentyl-8-(3-fluorobenzyl)-7,8-dihydro-4-propyl-1H-imidazo[2,1-i]purin-5(4H)-one hydrochloride] |  | Amount of secreted insulin (ng/ml) avg (MIN6 cell; drug concentration 1.0 μM): 223.8 ng/mL; % Ratio based on control (area of plasma insulin) (Wistar male rats): 291 ± 42%; Area of plasma insulin, test compound-administered group (Wistar male rats; after glucose-loading (10 mg/kg iv)): 13.41 ± 1.95 ng·s/mL
CCCN1C(=O)N2CC(Cc3ccc(Cl)cc3)N=C2c2[nH]c(C3CCCC3)nc21 (stereo not drawn) [Compound 20, 8-(4-chlorobenzyl)-2-cyclopentyl-7,8-dihydro-4-propyl-1H-imidazo[2,1-i]purin-5(4H)-one hydrochloride] |  | Amount of secreted insulin (ng/ml) avg (MIN6 cell; drug concentration 1.0 μM): 235.9 ng/mL
CCCN1C(=O)N2C[C@@H](Cc3ccccc3)N=C2c2[nH]c(C3CCC3)nc21 [Compound 37, (R)-8-benzyl-2-cyclobutyl-7,8-dihydro-4-propyl-1H-imidazo[2,1-i]purin-5(4H)-one hydrochloride] |  | Amount of secreted insulin (ng/ml) avg (MIN6 cell; drug concentration 1.0 μM): 202.8 ng/mL
CCCN1C(=O)N2C[C@@H](Cc3ccccc3)N=C2c2[nH]c(C(C)(C)C)nc21 [Compound 43, (R)-8-benzyl-2-tert-butyl-7,8-dihydro-4-propyl-1H-imidazo[2,1-i]purin-5(4H)-one hydrochloride] |  | Amount of secreted insulin (ng/ml) avg (MIN6 cell; drug concentration 1.0 μM): 199.1 ng/mL
CCCN1C(=O)N2CC(Cc3ccc(F)cc3)N=C2c2[nH]c(C3CCCCC3)nc21 (stereo not drawn) [Compound 50, 2-cyclohexyl-8-(4-fluorobenzyl)-7,8-dihydro-4-propyl-1H-imidazo[2,1-i]purin-5(4H)-one hydrochloride] |  | Amount of secreted insulin (ng/ml) avg (MIN6 cell; drug concentration 1.0 μM): 209.5 ng/mL
CCCN1C(=O)N2C[C@@H](Cc3ccc(F)cc3)N=C2c2[nH]c(-c3ccoc3)nc21 [Compound 54, (R)-8-(4-fluorobenzyl)-2-(3-furyl)-7,8-dihydro-4-propyl-1H-imidazo[2,1-i]purin-5(4H)-one] | 149 to 150 | Amount of secreted insulin (ng/ml) avg (MIN6 cell; drug concentration 1.0 μM): 216.1 ng/mL
CCCN1C(=O)N2CC(Cc3cc(Cl)ccc3Cl)N=C2c2[nH]c(C3CCCC3)nc21 (stereo not drawn) [Compound 65, 2-cyclopentyl-8-(2,5-dichlorobenzyl)-7,8-dihydro-4-propyl-1H-imidazo[2,1-i]purin-5(4H)-one hydrochloride] |  | Amount of secreted insulin (ng/ml) avg (MIN6 cell; drug concentration 1.0 μM): 207.8 ng/mL
CCCN1C(=O)N2C[C@H](C(C)(C)C)N=C2c2[nH]c(-c3ccoc3)nc21 [Compound 67, (S)-8-tert-butyl-2-(3-furyl)-7,8-dihydro-4-propyl-1H-imidazo[2,1-i]purin-5(4H)-one] | 204 to 206 | 
COc1ccc(Cl)cc1C(=O)NCCc1ccc(S(=O)(=O)NC(=O)NC2CCCCC2)cc1 [Glibenclamide, reference compound] |  | Amount of secreted insulin (ng/ml) avg (MIN6 cell; drug concentration 0.1 μM): 177.8 ng/mL; insulin secretion enhancing action at low glucose (MIN6 cell): showed marked secretion enhancing action
